# Reference: paper PMC11157767 (Molecular Cancer, 2024)
# Tested on: TRIM24-MET-i cells
# Conditions: GSEA, v. DMSO
# Description: The number of unique and shared differentially expressed genes between each comparison are shown in parentheses. A linear regression line is depicted along with Pearson’s correlation coefficient (r) and its associated p-value. […] Common negatively enriched genesets between all three comparisons are in bold. c, Heatmaps showing expression of Hallmark_Myc_Target_v1/2 genes for indicated cells and treatment comparisons (TRIM-MET cells were treated in vitro, TFG-MET cells in vivo). Select leading edge genes from GSEA are labeled.
compound,measurement,value
C[C@@H](Oc1cc(-c2cnn(C3CCNCC3)c2)cnc1N)c1c(Cl)ccc(F)c1Cl [Crizotinib],ES GOCC_MITOCHONDRIAL_ENVELOPE,-0.5203
same,ES GOCC_ORGANELLE_INNER_MEMBRANE,-0.5635
same,ES GOCC_PRERIBOSOME,-0.8837
same,ES GOCC_RIBONUCLEOPROTEIN_COMPLEX,-0.6028
same,ES GOCC_RIBOSOME,-0.6378
same,ES GOMF_STRUCTURAL_CONSTITUENT_OF_RIBOSOME,-0.6065
same,ES HALLMARK_ADIPOGENESIS,-0.3925
same,ES HALLMARK_ALLOGRAFT_REJECTION,-0.3891
same,ES HALLMARK_ANDROGEN_RESPONSE,-0.4501
same,ES HALLMARK_ANGIOGENESIS,-0.5001
same,ES HALLMARK_APICAL_JUNCTION,-0.2207
same,ES HALLMARK_APICAL_SURFACE,0.438
same,ES HALLMARK_APOPTOSIS,-0.353
same,ES HALLMARK_CHOLESTEROL_HOMEOSTASIS,-0.4271
same,ES HALLMARK_COAGULATION,-0.3066
same,ES HALLMARK_COMPLEMENT,-0.2741
same,ES HALLMARK_DNA_REPAIR,-0.3968
same,ES HALLMARK_E2F_TARGETS,-0.4061
same,ES HALLMARK_EPITHELIAL_MESENCHYMAL_TRANSITION,-0.2384
same,ES HALLMARK_ESTROGEN_RESPONSE_EARLY,-0.4462
same,ES HALLMARK_ESTROGEN_RESPONSE_LATE,-0.2995
same,ES HALLMARK_G2M_CHECKPOINT,-0.4157
same,ES HALLMARK_GLYCOLYSIS,-0.4578
same,ES HALLMARK_HEDGEHOG_SIGNALING,-0.4357
same,ES HALLMARK_HYPOXIA,-0.2949
same,ES HALLMARK_IL2_STAT5_SIGNALING,-0.5104
same,ES HALLMARK_IL6_JAK_STAT3_SIGNALING,-0.3352
same,ES HALLMARK_INFLAMMATORY_RESPONSE,-0.4227
same,ES HALLMARK_INTERFERON_ALPHA_RESPONSE,0.333
same,ES HALLMARK_INTERFERON_GAMMA_RESPONSE,-0.2664
same,ES HALLMARK_KRAS_SIGNALING_DN,0.421
same,ES HALLMARK_KRAS_SIGNALING_UP,-0.3522
same,ES HALLMARK_MITOTIC_SPINDLE,0.3203
same,ES HALLMARK_MTORC1_SIGNALING,-0.615
same,ES HALLMARK_MYC_TARGETS_V1,-0.7224
same,ES HALLMARK_MYC_TARGETS_V2,-0.8712
same,ES HALLMARK_MYOGENESIS,0.2133
same,ES HALLMARK_NOTCH_SIGNALING,-0.3408
same,ES HALLMARK_OXIDATIVE_PHOSPHORYLATION,-0.5351
same,ES HALLMARK_P53_PATHWAY,-0.3345
same,ES HALLMARK_PANCREAS_BETA_CELLS,0.2531
same,ES HALLMARK_PEROXISOME,-0.2701
same,ES HALLMARK_PI3K_AKT_MTOR_SIGNALING,-0.3822
same,ES HALLMARK_PROTEIN_SECRETION,-0.253
same,ES HALLMARK_TGF_BETA_SIGNALING,-0.4216
same,ES HALLMARK_TNFA_SIGNALING_VIA_NFKB,-0.4566
same,ES HALLMARK_UNFOLDED_PROTEIN_RESPONSE,-0.6894
same,ES HALLMARK_UV_RESPONSE_DN,0.2824
same,ES HALLMARK_UV_RESPONSE_UP,-0.4491
same,ES HALLMARK_WNT_BETA_CATENIN_SIGNALING,-0.3428
same,ES KRIGE_RESPONSE_TO_TOSEDOSTAT_6HR_DN,-0.7282
same,ES KRIGE_RESPONSE_TO_TOSEDOSTAT_24HR_DN,-0.7493
same,ES LEE_BMP2_TARGETS_DN,-0.726
same,ES PUJANA_CHEK2_PCC_NETWORK,-0.6234
same,ES WEI_MYCN_TARGETS_WITH_E_BOX,-0.7486
same,NES GOBP_NCRNA_PROCESSING,-2.807
same,NES GOBP_RIBONUCLEOPROTEIN_COMPLEX_BIOGENESIS,-2.6966
same,NES GOBP_RIBOSOME_BIOGENESIS,-2.885
same,NES GOCC_MITOCHONDRIAL_ENVELOPE,-1.997
same,NES GOCC_ORGANELLE_INNER_MEMBRANE,-2.127
same,NES GOCC_PRERIBOSOME,-2.754
same,NES GOCC_RIBONUCLEOPROTEIN_COMPLEX,-2.312
same,NES GOCC_RIBOSOME,-2.274
same,NES GOMF_STRUCTURAL_CONSTITUENT_OF_RIBOSOME,-2.105
same,NES HALLMARK_ADIPOGENESIS,-1.373
same,NES HALLMARK_ALLOGRAFT_REJECTION,-1.343
same,NES HALLMARK_ANDROGEN_RESPONSE,-1.464
same,NES HALLMARK_ANGIOGENESIS,-1.355
same,NES HALLMARK_APICAL_JUNCTION,-0.7717
same,NES HALLMARK_APICAL_SURFACE,1.391
same,NES HALLMARK_APOPTOSIS,-1.211
same,NES HALLMARK_CHOLESTEROL_HOMEOSTASIS,-1.341
same,NES HALLMARK_COMPLEMENT,-0.9577
same,NES HALLMARK_DNA_REPAIR,-1.352
same,NES HALLMARK_E2F_TARGETS,-1.43
same,NES HALLMARK_EPITHELIAL_MESENCHYMAL_TRANSITION,-0.8343
same,NES HALLMARK_ESTROGEN_RESPONSE_EARLY,-1.563
same,NES HALLMARK_ESTROGEN_RESPONSE_LATE,-1.046
same,NES HALLMARK_G2M_CHECKPOINT,-1.457
same,NES HALLMARK_GLYCOLYSIS,-1.603
same,NES HALLMARK_HEDGEHOG_SIGNALING,-1.2
same,NES HALLMARK_HYPOXIA,-1.03
same,NES HALLMARK_IL2_STAT5_SIGNALING,-1.788
same,NES HALLMARK_IL6_JAK_STAT3_SIGNALING,-1.065
same,NES HALLMARK_INFLAMMATORY_RESPONSE,-1.474
same,NES HALLMARK_INTERFERON_ALPHA_RESPONSE,1.217
same,NES HALLMARK_INTERFERON_GAMMA_RESPONSE,-0.9329
same,NES HALLMARK_KRAS_SIGNALING_DN,1.674
same,NES HALLMARK_KRAS_SIGNALING_UP,-1.231
same,NES HALLMARK_MITOTIC_SPINDLE,1.318
same,NES HALLMARK_MTORC1_SIGNALING,-2.165
same,NES HALLMARK_MYC_TARGETS_V1,-2.537
same,NES HALLMARK_MYC_TARGETS_V2,-2.6498
same,NES HALLMARK_MYOGENESIS,0.8749
same,NES HALLMARK_NOTCH_SIGNALING,-0.9083
same,NES HALLMARK_OXIDATIVE_PHOSPHORYLATION,-1.871
same,NES HALLMARK_P53_PATHWAY,-1.1707
same,NES HALLMARK_PANCREAS_BETA_CELLS,0.7398
same,NES HALLMARK_PEROXISOME,-0.8785
same,NES HALLMARK_PI3K_AKT_MTOR_SIGNALING,-1.243
same,NES HALLMARK_PROTEIN_SECRETION,-0.8206
same,NES HALLMARK_TGF_BETA_SIGNALING,-1.271
same,NES HALLMARK_TNFA_SIGNALING_VIA_NFKB,-1.6076
same,NES HALLMARK_UNFOLDED_PROTEIN_RESPONSE,-2.272
same,NES HALLMARK_UV_RESPONSE_DN,1.115
same,NES HALLMARK_UV_RESPONSE_UP,-1.536
same,NES HALLMARK_WNT_BETA_CATENIN_SIGNALING,-0.9746
same,NES KRIGE_RESPONSE_TO_TOSEDOSTAT_6HR_DN,-2.811
same,NES KRIGE_RESPONSE_TO_TOSEDOSTAT_24HR_DN,-2.908
same,NES LEE_BMP2_TARGETS_DN,-2.799
same,NES PUJANA_CHEK2_PCC_NETWORK,-2.394
same,NES WEI_MYCN_TARGETS_WITH_E_BOX,-2.882
